Assay results as given in patent US7135466B2 (Kirin Beer Kabushiki Kaisha, priority 1999, dated 2006).

Columns and labels:
PDGF-Ra = biological target: T1, PDGF-Ra (Homo sapiens, UniProt P16234); assay: Inhibitory activity against PDGF-Ra phosphorylation by PDGF-AA stimulation using G292; assay type: cell-based; conditions: Pharmacological Test Example 1; > means inhibition at indicated concentration not more than 50%, < and << not less than 50%; read-out: PDGF (E) IC50
T1 construct: host or cells: G-292 human osteosarcoma cells
Outline: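 G-292 human osteosarcoma cells, serum-starved overnight in 0.1% FBS, were pretreated with compound in DMSO for 1 hr at 37 °C, then stimulated with 50 ng/ml PDGF-AA for 5 min. Lysates were captured on anti-phosphotyrosine PY-20 plates and probed with anti-PDGF-Ra plus HRP secondary; absorbance read at 450 nm.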

c-kit = biological target: T2, c-kit (Homo sapiens, UniProt P10721); assay: Inhibitory activity against c-kit autophosphorylation (MO7e cells, h-SCF); assay type: cell-based; conditions: MO7e cells, h-SCF 50 ng/ml; read-out: c-kit IC50
T2 construct: MO7e (human megakaryocytic leukemia cell line) which had been arrested for 20 hr; endogenous in cells; host or cells: MO7e human megakaryocytic leukemia cell line
Outline: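 Ligand-induced c-kit tyrosine phosphorylation is measured in MO7e cells that were quiesced 20 hr and preincubated with compound for 1 hr prior to a 5 min pulse of 50 ng/ml human SCF. Phospho-c-kit is detected by anti-phosphotyrosine capture ELISA, A450.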

T2 sequence (P10721 26-976): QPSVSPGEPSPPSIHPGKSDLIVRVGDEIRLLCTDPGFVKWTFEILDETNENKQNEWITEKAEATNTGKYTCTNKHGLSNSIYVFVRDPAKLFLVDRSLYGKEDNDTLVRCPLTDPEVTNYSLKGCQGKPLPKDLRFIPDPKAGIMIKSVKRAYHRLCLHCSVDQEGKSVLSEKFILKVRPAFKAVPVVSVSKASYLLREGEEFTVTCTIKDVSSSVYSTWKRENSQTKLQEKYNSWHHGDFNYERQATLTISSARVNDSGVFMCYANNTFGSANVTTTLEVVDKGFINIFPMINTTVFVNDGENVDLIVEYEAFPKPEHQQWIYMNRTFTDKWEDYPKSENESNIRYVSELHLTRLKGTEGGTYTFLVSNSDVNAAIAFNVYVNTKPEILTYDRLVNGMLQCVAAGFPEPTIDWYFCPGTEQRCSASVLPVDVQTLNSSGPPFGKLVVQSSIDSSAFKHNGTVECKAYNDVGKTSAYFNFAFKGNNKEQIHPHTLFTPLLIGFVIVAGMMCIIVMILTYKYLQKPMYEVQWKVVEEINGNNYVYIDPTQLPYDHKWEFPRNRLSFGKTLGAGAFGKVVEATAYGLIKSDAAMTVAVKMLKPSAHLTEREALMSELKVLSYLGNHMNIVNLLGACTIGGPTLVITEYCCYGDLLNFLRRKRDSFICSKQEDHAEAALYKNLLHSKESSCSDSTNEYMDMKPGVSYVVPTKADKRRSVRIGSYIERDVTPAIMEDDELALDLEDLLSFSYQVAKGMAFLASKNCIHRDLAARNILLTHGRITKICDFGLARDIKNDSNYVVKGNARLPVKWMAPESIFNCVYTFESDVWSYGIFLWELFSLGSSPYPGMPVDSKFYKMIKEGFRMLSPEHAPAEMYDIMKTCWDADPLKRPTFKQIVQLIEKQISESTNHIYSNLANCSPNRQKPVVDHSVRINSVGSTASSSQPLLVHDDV
T1 sequence (P16234 24-1089): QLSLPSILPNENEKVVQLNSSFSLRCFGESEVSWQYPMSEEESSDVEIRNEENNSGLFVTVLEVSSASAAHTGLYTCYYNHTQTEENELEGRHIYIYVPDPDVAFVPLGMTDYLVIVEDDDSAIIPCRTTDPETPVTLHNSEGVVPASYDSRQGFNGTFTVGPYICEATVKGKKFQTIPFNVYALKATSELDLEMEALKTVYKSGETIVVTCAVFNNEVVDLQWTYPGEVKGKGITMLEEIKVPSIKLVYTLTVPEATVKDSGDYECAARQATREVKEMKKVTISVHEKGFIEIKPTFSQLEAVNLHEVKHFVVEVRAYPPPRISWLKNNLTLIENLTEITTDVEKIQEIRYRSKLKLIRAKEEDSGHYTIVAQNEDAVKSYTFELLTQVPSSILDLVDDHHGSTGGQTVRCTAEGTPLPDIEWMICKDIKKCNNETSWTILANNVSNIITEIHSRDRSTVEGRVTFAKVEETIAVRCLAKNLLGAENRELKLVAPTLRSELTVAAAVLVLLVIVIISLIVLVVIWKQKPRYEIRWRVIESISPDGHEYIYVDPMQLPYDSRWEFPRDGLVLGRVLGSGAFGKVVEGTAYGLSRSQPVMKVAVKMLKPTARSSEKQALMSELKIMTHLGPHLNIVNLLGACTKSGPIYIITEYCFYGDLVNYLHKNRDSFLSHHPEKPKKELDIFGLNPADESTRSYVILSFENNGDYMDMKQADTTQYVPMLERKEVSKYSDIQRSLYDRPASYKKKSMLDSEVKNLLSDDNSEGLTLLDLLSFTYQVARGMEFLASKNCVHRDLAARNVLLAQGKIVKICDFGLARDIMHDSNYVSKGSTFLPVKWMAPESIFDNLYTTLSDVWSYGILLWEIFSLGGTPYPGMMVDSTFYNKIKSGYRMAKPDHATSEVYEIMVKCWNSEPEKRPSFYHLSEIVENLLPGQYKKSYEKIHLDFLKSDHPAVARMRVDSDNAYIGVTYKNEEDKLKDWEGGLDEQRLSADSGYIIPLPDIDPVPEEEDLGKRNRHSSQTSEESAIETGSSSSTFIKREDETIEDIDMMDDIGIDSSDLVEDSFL

IC50 (PDGF-Ra) [nM]	IC50 (c-kit) [nM]	SMILES
< 10	35	COc1cc2nccc(Oc3ccc(NC(=O)OCCCOc4ccccc4OC)cc3)c2cc1OC [Example 157, 3-(2-Methoxyphenoxy)propyl N-{4-[(6,7-dimethoxy-4-quinolyl)oxy]phenyl}carbamate]
12	107	COc1cc2nccc(Oc3ccc(NC(=O)OCCCOc4ccccc4OC)c(C)c3C)c2cc1OC [Example 158, 3-(2-Methoxyphenoxy)propyl N-{4-[(6,7-dimethoxy-4-quinolyl)oxy]-2,3-dimethylphenyl}carbamate]
52	147	COc1cc2nccc(Oc3cc(C)c(NC(=O)OCCCOc4ccccc4OC)cc3C)c2cc1OC [Example 159, 3-(2-Methoxyphenoxy)propyl N-{4-[(6,7-dimethoxy-4-quinolyl)oxy]-2,5-dimethylphenyl}carbamate]
16	52	COc1cc2ncnc(Oc3ccc(NC(=O)OCCCOc4ccccc4OC)cc3)c2cc1OC [Example 160, 3-(2-Methoxyphenoxy)propyl N-{4-[(6,7-dimethoxy-4-quinazolinyl)oxy]phenyl}carbamate]
< 10	178	COc1cccc(OCCCOC(=O)Nc2ccc(Oc3ccnc4cc(OC)c(OC)cc34)cc2)c1 [Example 161, 3-(3-Methoxyphenoxy)propyl N-{4-[(6,7-dimethoxy-4-quinolyl)oxy]phenyl}carbamate]
16	162	COc1cccc(OCCCOC(=O)Nc2ccc(Oc3ccnc4cc(OC)c(OC)cc34)c(C)c2C)c1 [Example 162, 3-(3-Methoxyphenoxy)propyl N-{4-[(6,7-dimethoxy-4-quinolyl)oxy]-2,3-dimethylphenyl}carbamate]
< 10	185	COc1cccc(OCCCOC(=O)Nc2cc(C)c(Oc3ccnc4cc(OC)c(OC)cc34)cc2C)c1 [Example 163, 3-(3-Methoxyphenoxy)propyl N-{4-[(6,7-dimethoxy-4-quinolyl)oxy]-2,5-dimethylphenyl}carbamate]
12	50	COc1cccc(OCCCOC(=O)Nc2ccc(Oc3ncnc4cc(OC)c(OC)cc34)cc2)c1 [Example 164, 3-(3-Methoxyphenoxy)propyl N-{4-[(6,7-dimethoxy-4-quinazolinyl)oxy]phenyl}carbamate]
49	149	COc1cc2nccc(Oc3ccc(NC(=O)OCCSc4cc(C)ccc4C)cc3)c2cc1OC [Example 165, 2-[(2,5-dimethylphenyl)sulfanyl]ethyl N-{4-[(6,7-dimethoxy-4-quinolyl)oxy]phenyl}carbamate]
34	145	COc1cc2nccc(Oc3ccc(NC(=O)OCCSc4cc(C)ccc4C)c(C)c3C)c2cc1OC [Example 166, 2-[(2,5-Dimethylphenyl)sulfanyl]ethyl N-{4-[(6,7-dimethoxy-4-quinolyl)oxy]-2,3-dimethylphenyl}carbamate]
45	370	COc1cc2nccc(Oc3cc(C)c(NC(=O)OCCSc4cc(C)ccc4C)cc3C)c2cc1OC [Example 167, 2-[(2,5-Dimethylphenyl)sulfanyl]ethyl N-{4-[(6,7-Dimethoxy-4-quinolyl)oxy]-2,5-dimethylphenyl}carbamate]
15	52	COc1cc2ncnc(Oc3ccc(NC(=O)OCCSc4cc(C)ccc4C)cc3)c2cc1OC [Example 168, 2-[(2,5-Dimethylphenyl)sulfanyl]ethyl N-{4-[(6,7-dimethoxy-4-quinazolinyl)oxy]phenyl}carbamate]
< 10	31	COc1cc2nccc(Oc3ccc(NC(=O)OCCCSc4cc(C)ccc4C)cc3)c2cc1OC [Example 169, 3-[(2,5-Dimethylphenyl)sulfanyl)propyl N-{4-[(6,7-dimethoxy-4-quinolyl)oxy]phenyl}carbamate]
< 10	34	COc1cc2nccc(Oc3ccc(NC(=O)OCCCSc4cc(C)ccc4C)c(C)c3C)c2cc1OC [Example 170, 3-[(2,5-Dimethylphenyl)sulfanyl]propyl N-{4-[(6,7-dimethoxy-4-quinolyl)oxy]-2,3-dimethylphenyl}carbamate]
22	83	COc1cc2nccc(Oc3cc(C)c(NC(=O)OCCCSc4cc(C)ccc4C)cc3C)c2cc1OC [Example 171, 3-[(2,5-Dimethylphenyl)sulfanyl]propyl N-{4-[(6,7-dimethoxy-4-quinolyl)oxy]-2,5-dimethylphenyl}carbamate]
17	74	COc1cc2ncnc(Oc3ccc(NC(=O)OCCCSc4cc(C)ccc4C)cc3)c2cc1OC [Example 172, 3-[(2,5-Dimethylphenyl)sulfanyl]-propyl N-{4-[(6,7-dimethoxy-4-quinazolinyl)oxy]phenyl}carbamate]
< 10	37	COc1cc2nccc(Oc3ccc(NC(=O)OCCCSc4ccccn4)c(C)c3C)c2cc1OC [Example 173, 3-(2-Pyridylsulfanyl)propyl N-{4-[(6,7-dimethoxy-4-quinolyl)oxy]-2,3-dimethylphenyl}-carbamate]

IC50 (PDGF-Ra) [nM]	IC50 (c-kit) [nM]	SMILES
< 10	70	COc1cc2nccc(Oc3cc(C)c(NC(=O)OCCCSc4ccccn4)cc3C)c2cc1OC [Example 174, 3-(2-Pyridylsulfanyl)propyl N-{4-[(6,7-dimethoxy-4-quinolyl)oxy]-2,5-dimethylphenyl}-carbamate]
< 10	45	COc1cc2ncnc(Oc3ccc(NC(=O)OCCCSc4ccccn4)cc3)c2cc1OC [Example 175, 3-(2-Pyridylsulfanyl)propyl N-{4-[(6,7-dimethoxy-4-quinazolinyl)oxy]phenyl}carbamate]
20	< 30	COc1cc2nccc(Oc3ccc(NC(=O)Sc4ccc(Cl)cc4C)cc3)c2cc1OC [Example 176, 4-Chloro-2-methylphenyl{4-[(6,7-dimethoxy-4-quinolyl)oxy]anilino}methanethioate]
19	< 30	COc1cc2nccc(Oc3ccc(NC(=O)Sc4ccc(Cl)cc4C)c(C)c3C)c2cc1OC [Example 177, 4-Chloro-2-methylphenyl{4-[(6,7-dimethoxy-4-quinolyl)oxy]-2,3-dimethylanilino}methanethioate]
35	706	COc1cc2ncnc(Oc3ccc(NC(=O)OC(C)c4cccc(OC(F)(F)F)c4)cc3)c2cc1OC (stereo not drawn) [Example 183, 1-[3-(Trifluoromethoxy)phenyl]ethyl N-{4-[(6,7-dimethoxy-4-quinazolinyl)oxy]phenyl}carbamate]
38	369	CCCC(OC(=O)Nc1ccc(Oc2ccnc3cc(OC)c(OC)cc23)cc1)c1ccccc1 (stereo not drawn) [Example 184, 1-Phenylbutyl N{4-[(6,7-dimethoxy-4-quinolyl)oxy]phenyl}carbamate]
< 10	561	CCCC(OC(=O)Nc1ccc(Oc2ncnc3cc(OC)c(OC)cc23)cc1)c1ccccc1 (stereo not drawn) [Example 187, 1-Phenylbutyl N-{4-[(6,7-dimethoxy-4-quinazolinyl)oxy]phenyl}carbamate]
84	503	COc1cc2ncnc(Oc3ccc(NC(=O)OCCN(C)C)cc3)c2cc1OC [Example 191, 2-(Dimethylamino)ethyl N-{4-[(6,7-dimethoxy-4-quinazolinyl)oxy]phenyl}carbamate]
35	807	COc1cc2nccc(Oc3ccc(NC(=O)OC(C)c4cccc(N(C)C)c4)cc3)c2cc1OC (stereo not drawn) [Example 199, 1-[3-(Dimethylamino)phenyl]ethyl N-{4-[(6,7-dimethoxy-4-quinolyl)oxy]phenyl}carbamate]
31	329	COc1cc2nccc(Oc3ccc(NC(=O)OC(C)c4cccc(N(C)C)c4)c(C)c3C)c2cc1OC (stereo not drawn) [Example 200, 1-[3-(Dimethylamino)phenyl]ethyl N-{4-[(6,7-dimethoxy-4-quinolyl)oxy]-2,3-dimethylphenyl}-carbamate]
10	610	COc1cc2ncnc(Oc3ccc(NC(=O)OC(C)c4cccc(N(C)C)c4)cc3)c2cc1OC (stereo not drawn) [Example 202, 1-[3-(Dimethylamino)phenyl]ethyl N-{4-[(6,7-dimethoxy-4-quinazolinyl)oxy]phenyl}carbamate]
25	169	COc1cc2nccc(Oc3ccc(NC(=O)OCCOc4ccccc4F)cc3)c2cc1OC [Example 203, 2-(2-Fluorophenoxy)ethyl N-{4-[(6,7-dimethoxy-4-quinolyl)oxy]phenyl}carbamate]
28	79	COc1cc2nccc(Oc3ccc(NC(=O)OCCOc4ccccc4F)c(C)c3C)c2cc1OC [Example 204, 2-(2-Fluorophenoxy)ethyl N-{4-[(6,7-dimethoxy-4-quinolyl)oxy]-2,3-dimethylphenyl}carbamate]
13	80	COc1cc2ncnc(Oc3ccc(NC(=O)OCCOc4ccccc4F)cc3)c2cc1OC [Example 206, 2-(2-Fluorophenoxy)ethyl N-{4-[(6,7-dimethoxy-4-quinazolinyl)oxy]phenyl}carbamate]
31	55	COc1cc2nccc(Oc3ccc(NC(=O)OCCOc4cccc(F)c4)cc3)c2cc1OC [Example 207, 2-(3-Fluorophenoxy)ethyl N-{4-[(6,7-dimethoxy-4-quinolyl)oxy]phenyl}carbamate]
18	53	COc1cc2nccc(Oc3ccc(NC(=O)OCCOc4cccc(F)c4)c(C)c3C)c2cc1OC [Example 208, 2-(3-Fluorophenoxy)ethyl N-{4-[(6,7-dimethoxy-4-quinolyl)oxy]-2,3-dimethylphenyl}carbamate]
